According to US20050070558A1, “6-Phenyldihydropyrrolopyrimidinedione derivatives” (priority 2001, published 2005):

What was measured:
hA2b receptors = biological target: T1, hA2b receptors (Homo sapiens, UniProt P29275); assay: Adenosine 2b receptor subtype competition radioligand binding ([3H]DPCPX); details: membranes from hA2b receptors transfected to HEK293 cells, 30 min at 25° C., read-out: IC50 A2b
T1 construct: purchased Receptor Biology, Inc. (USA); host or cells: HEK293
T1 sequence (P29275 1-332): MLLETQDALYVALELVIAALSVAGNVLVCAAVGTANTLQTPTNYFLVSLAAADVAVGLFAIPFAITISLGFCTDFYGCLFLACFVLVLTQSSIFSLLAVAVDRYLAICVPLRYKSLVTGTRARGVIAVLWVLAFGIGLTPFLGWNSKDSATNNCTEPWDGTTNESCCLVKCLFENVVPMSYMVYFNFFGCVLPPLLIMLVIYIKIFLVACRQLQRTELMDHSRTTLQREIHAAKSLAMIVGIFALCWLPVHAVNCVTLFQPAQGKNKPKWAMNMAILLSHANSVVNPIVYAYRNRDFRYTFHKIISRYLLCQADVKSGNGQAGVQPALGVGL
Procedure: Adenosine 2b Receptor Subtype Competition Radioligand Binding
Human membranes from recombinant A2b receptors were purchased from Receptor Biology, Inc. (USA).
Competition assays were carried out by incubation of membranes from hA2b receptors transfected to HEK293 cells, [^3H]DPCPX as radioligand, buffer (50 mM Tris-HCl (pH 6.5), 10 mM MgCl2, 1 mM EDTA, 0.1 mM benzamidine, 2 units/ml adenosine deaminase), and unlabelled ligand in a total volume of 0.1 ml for 30 min at 25° C. NECA was used to determinate non-specific binding. Filter over Schleicher&Schuell GF/52 filters (pre-soaked 0.5% polyethylenyimine) in a Brandel cell harvester. Unbound radioligand was removed with 4×2 ml ice-cold 50 mM Tris-Hcl 50 mM (pH 6.5).

hA2a receptors = biological target: T2, hA2a receptors (Homo sapiens, UniProt P29274); assay: Adenosine 2a receptor subtype competition radioligand binding ([3H]ZM241385); details: membranes from hA2a receptors transfected to HEK293 cells, [3H]ZM241385, 90 min at 25° C.; read-out: IC50 A2a
T2 construct: purchased Receptor Biology, Inc. (USA); host or cells: HEK293
T2 sequence (P29274 whole entry): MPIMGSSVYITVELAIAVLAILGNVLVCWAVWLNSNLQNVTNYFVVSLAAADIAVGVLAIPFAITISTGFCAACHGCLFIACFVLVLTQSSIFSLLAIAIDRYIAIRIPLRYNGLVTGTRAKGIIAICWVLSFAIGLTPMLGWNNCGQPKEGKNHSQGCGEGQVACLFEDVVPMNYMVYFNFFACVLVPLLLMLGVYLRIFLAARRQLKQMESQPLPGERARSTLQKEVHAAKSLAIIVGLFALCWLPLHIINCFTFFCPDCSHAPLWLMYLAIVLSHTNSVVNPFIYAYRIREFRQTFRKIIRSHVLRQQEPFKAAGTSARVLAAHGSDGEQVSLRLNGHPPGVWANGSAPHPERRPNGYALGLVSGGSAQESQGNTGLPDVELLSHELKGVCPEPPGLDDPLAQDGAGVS
Procedure: Adenosine 2a Receptor Subtype Competition Radioligand Binding
Human membranes from recombinant A2a receptors were purchased from Receptor Biology, Inc. (USA).
Competition assays were carried out by incubation of membranes from hA2a receptors transfected to HEK293 cells, [^3H]ZM241385 as radioligand, buffer (50 mM Tris-HCl (pH 7.4), 10 mM MgCl2, 1 mM EDTA, 2 units/ml adenosine deaminase), and unlabelled ligand in a total volume of 0.2 ml for 90 min at 25° C. NECA was used to determinate non-specific binding. Filter over Schleicher&Schuell GF/52 filters (pre-soaked 0.5% polyethylenyimine) in a Brandel cell harvester. Unbound radioligand was removed with 3×3 ml ice-cold 50 mM Tris-Hcl 50 mM (pH 7.4), 0.9% NaCl.

IC50 (hA2b receptors) [nM]	IC50 (hA2a receptors) [nM]	melting point	SMILES
7	–	–	CCCn1c(=O)c2[nH]c(-c3ccc(OCC(=O)N4CCN(c5ccccc5)CC4)cc3)cc2n(CCC)c1=O [Example 2, 6-{4-[2-Oxo-2-(4-phenylpiperazin-1-yl)ethoxy]phenyl}-1,3-dipropyl-1,5-dihydropyrrolo[3,2-d]pyrimidine-2,4-dione]
5	22	–	CCCn1c(=O)c2[nH]c(-c3ccc(OCC(=O)Nc4ccc(F)cc4)cc3)cc2n(CCC)c1=O [Example 3, 2-[4-(2,4-Dioxo-1,3-dipropyl-2,3,4,5-tetrahydro-1H-pyrrolo[3,2-d]pyrimidin-6-yl)phenoxy]-N-(4-fluorophenyl)acetamide]
3	–	–	CCCn1c(=O)c2[nH]c(-c3ccc(OCC(=O)N4CCc5ccccc5C4)cc3)cc2n(CCC)c1=O [Example 4]
24	26	–	Cn1c(=O)c2[nH]c(-c3ccc(OCC(=O)Nc4nncs4)cc3)cc2n(C)c1=O [Example 67, 2-[4-(1,3-Dimethyl-2,4-dioxo-2,3,4,5-tetrahydro-1H-pyrrolo[3,2-d]pyrimidin-6-yl)phenoxy]-N-[1,3,4]thiadiazol-2-ylacetamide]
8	–	–	Cn1c(=O)c2[nH]c(-c3ccc(OCC(=O)N4CCN(c5ccccc5)CC4)cc3)cc2n(C)c1=O [Example 68, 1,3-Dimethyl-6-{4-[2-oxo-2-(4-phenylpiperazin-1-yl)ethoxy]phenyl}-1,5-dihydropyrrolo[3,2-d]pyrimidine-2,4-dione]
–	–	> 275 °C (dec.)	Cn1c(=O)c2[nH]c(-c3ccc(OCC(=O)N4CCN(c5cccc(C(F)(F)F)c5)CC4)cc3)cc2n(C)c1=O [Example 74, 1,3-Dimethyl-6-(4-{2-oxo-2-[4-(3-trifluoromethylphenyl)piperazin-1-yl]ethoxy}phenyl)-1,5-dihydropyrrolo[3,2-d]pyrimidine-2,4-dione]
10	–	–	CCCn1c(=O)c2[nH]c(-c3ccc(OCC(=O)N4CCC(c5ccccc5)(c5ccccc5)CC4)cc3)cc2n(C)c1=O [Example 100, 6-{4-[2-(4,4-Diphenylpiperidin-1-yl)-2-oxo-ethoxy]phenyl}-1-methyl-3-propyl-1,5-dihydropyrrolo[3,2-d]pyrimidine-2,4 dione]
–	38	–	CCCn1c(=O)c2[nH]c(-c3ccc(OCC(=O)Nc4ccc(F)cc4)cc3)c(Br)c2n(CCC)c1=O [Example 138, 2-[4-(7-Bromo-2,4-dioxo-1,3-dipropyl-2,3,4,5-tetrahydro-1H-pyrrolo[3,2-d]pyrimidin-6-yl)phenoxy]-N-(4-fluorophenyl)acetamide]
–	84	–	COc1cc(-c2cc3c([nH]2)c(=O)n(C)c(=O)n3C)ccc1OCC(=O)Nc1ccc(F)cc1 [Example 160, 2-[4-(1,3-Dimethyl-2,4-dioxo-2,3,4,5-tetrahydro-1H-pyrrolo[3,2-d]pyrimidin-6-yl)-2-methoxyphenoxy]-N-(4-fluorophenyl)acetamide]
17	–	–	CCCn1c(=O)c2[nH]c(-c3ccc(OCc4nc(-c5ccccc5)no4)cc3)cc2n(CCC)c1=O [Example 210, 6-[4-(3-Phenyl[1,2,4]oxadiazol-5-ylmethoxy)phenyl]-1,3-dipropyl-1,5-dihydropyrrolo[3,2-d]pyrimidine-2,4-dione]
–	–	182 to 185 °C	CCCn1c(=O)c2[nH]c(-c3ccc(COC(=O)Nc4cc(OC)nc(OC)n4)cc3)cc2n(CCC)c1=O [Example 259, (2,6-Dimethoxy-pyrimidin-4-yl)-carbamic Acid 4-(2,4-dioxo-1,3-dipropyl-2,3,4,5-tetrahydro-1H-pyrrolo[3,2-d]pyrimidin-6-yl)benzyl Ester]
–	–	301 °C	Cn1c(=O)c2[nH]c(-c3ccc(COC(=O)Nc4ccccn4)cc3)cc2n(C)c1=O [Example 268, Pyridin-2-yl-carbamic acid 4-(1,3-dimethyl-2,4-dioxo-2,3,4,5-tetrahydro-1H-pyrrolo[3,2-d]pyrimidin-6-yl)benzyl ester]
–	–	293 °C	Cc1ccc(NC(=O)OCc2ccc(-c3cc4c([nH]3)c(=O)n(C)c(=O)n4C)cc2)nc1 [Example 269, (5-Methylpyridin-2-yl)-carbamic acid 4-(1,3-dimethyl-2,4-dioxo-2,3,4,5-tetrahydro-1H-pyrrolo[3,2-d]pyrimidin-6-yl)benzyl ester]
–	–	287 °C	Cn1c(=O)c2[nH]c(-c3ccc(COC(=O)Nc4cccs4)cc3)cc2n(C)c1=O [Example 270, Thiophen-2-yl-carbamic acid 4-(1,3-dimethyl-2,4-dioxo-2,3,4,5-tetrahydro-1H-pyrrolo[3,2-d]pyrimidin-6-yl)-benzyl ester]
–	–	280 °C	Cn1c(=O)c2[nH]c(-c3ccc(COC(=O)Nc4ccsc4)cc3)cc2n(C)c1=O [Example 271, Thiophen-3-yl-carbamic acid 4-(1,3-dimethyl-2,4-dioxo-2,3,4,5-tetrahydro-1H-pyrrolo[3,2-d]pyrimidin-6-yl)-benzyl ester]
–	–	278 °C	Cn1c(=O)c2[nH]c(-c3ccc(COC(=O)Nc4ccco4)cc3)cc2n(C)c1=O [Example 272, Furan-2-yl-carbamic acid 4-(1,3-dimethyl-2,4-dioxo-2,3,4,5-tetrahydro 1H-pyrrolo[3,2-d]pyrimidin-6-yl)-benzyl ester]
